Assay results reported in publication PMC10274775 (bioRxiv, 2023).

What was measured:
[1] = target: T1, uniporter with MICU1-MICU1 homodimer (MICU2-KO HEK cells) (Homo sapiens, UniProt Q8NE86+Q9BPX6); experiment: Fluo-4 extramitochondrial Ca2+ in digitonin-permeabilized MICU2-KO HEK cells; assay type: biochemical
T1 sequence (Q8NE86 51-351): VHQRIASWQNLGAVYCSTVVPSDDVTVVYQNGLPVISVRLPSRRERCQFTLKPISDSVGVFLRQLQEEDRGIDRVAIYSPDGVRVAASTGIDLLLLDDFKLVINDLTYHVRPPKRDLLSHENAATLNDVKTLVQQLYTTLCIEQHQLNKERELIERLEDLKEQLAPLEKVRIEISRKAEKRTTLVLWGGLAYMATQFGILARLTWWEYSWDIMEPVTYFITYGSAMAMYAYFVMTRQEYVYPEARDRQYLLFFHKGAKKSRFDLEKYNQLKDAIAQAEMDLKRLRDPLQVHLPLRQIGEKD
T1 sequence (Q9BPX6 34-476): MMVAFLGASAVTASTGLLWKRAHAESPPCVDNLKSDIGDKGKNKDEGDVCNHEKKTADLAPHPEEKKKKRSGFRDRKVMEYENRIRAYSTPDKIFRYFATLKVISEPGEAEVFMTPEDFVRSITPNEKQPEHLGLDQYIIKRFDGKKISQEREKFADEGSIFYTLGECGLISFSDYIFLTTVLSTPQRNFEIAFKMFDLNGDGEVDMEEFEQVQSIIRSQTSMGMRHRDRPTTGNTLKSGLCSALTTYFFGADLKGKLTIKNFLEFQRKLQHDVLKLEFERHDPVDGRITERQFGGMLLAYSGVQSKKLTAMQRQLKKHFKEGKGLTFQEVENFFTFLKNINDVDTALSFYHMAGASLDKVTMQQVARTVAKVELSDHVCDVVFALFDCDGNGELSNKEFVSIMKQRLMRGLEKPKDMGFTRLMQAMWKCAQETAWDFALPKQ
T1 sequence (Q9H4I9 53-107 partner): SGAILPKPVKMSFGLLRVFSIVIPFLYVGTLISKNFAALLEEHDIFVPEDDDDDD

[2] = target: T2, MCU-MICU1 complex (MICU1-1 dimer) (Homo sapiens, UniProt Q8NE86+Q9BPX6); experiment: co-immunoprecipitation from HEK lysate, western blot; assay type: biochemical; settings: 1 mM spermine, 1 mM EGTA; disruption of the MCU-MICU1 interaction; pH 7.4, 4 mM DDM
T2 sequence (Q8NE86 51-351): T1 sequence (Q8NE86 51-351)
T2 sequence (Q9BPX6 34-476): T1 sequence (Q9BPX6 34-476)

NCCCNCCCCNCCCN [spermine]
EC50 [1]: 158 µM
co-immunoprecipitation from HEK lysate, western blot [2]: spermine fully breaks complex formation between MCU and the MICU1-1 dimer
